Test system: 485368-065-R4-J2-PDC spheroids with HUVEC/MSC, viability
Experiment: Anticancer human tumor 485368-065-R4-J2-PDC patient-derived pancreatic carcinoma cell line growth inhibition [TAK]
Settings: for IC50: curve of first compound; for viability, T/C: stronger effect = lower value
Procedure, shortened: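 Drug combinations, each paired with TAK-243 or ipatasertib, were tested on multi-cell spheroids of 60% malignant cells, 25% HUVEC and 15% hMSC. Top concentrations were at or near the clinical Cmax (10 microM if undetermined), decreasing by half-log; viability is given as % test/control.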

[1] = second compound 0.3 µM, first compound 0.0316 µM
[2] = second compound 0.3 µM, first compound 0.1 µM
[3] = second compound 0.3 µM, first compound 0.316 µM
[4] = second compound 0.3 µM, first compound 1 µM
[5] = second compound 0.949 µM, first compound 0.0316 µM
[6] = second compound 0.949 µM, first compound 0.1 µM
[7] = second compound 0.949 µM, first compound 0.316 µM
[8] = second compound 0.949 µM, first compound 1 µM
[9] = second compound 3 µM, first compound 0.0316 µM
[10] = second compound 3 µM, first compound 0.1 µM
[11] = second compound 3 µM, first compound 0.316 µM
[12] = second compound 3 µM, first compound 1 µM
[13] = second compound 9.49 µM, first compound 0.0316 µM
[14] = second compound 9.49 µM, first compound 0.1 µM
[15] = second compound 9.49 µM, first compound 0.316 µM
[16] = second compound 9.49 µM, first compound 1 µM
[17] = second compound 30 µM, first compound 0.0316 µM
[18] = second compound 30 µM, first compound 0.1 µM
[19] = second compound 30 µM, first compound 0.316 µM
[20] = second compound 30 µM, first compound 1 µM
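Also: spheroids exposed to compounds for seven days before readout.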
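For viability, T/C in this document: 100% = DMSO vehicle control wells.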

SMILES	IC50 (second compound 0.3 µM)	IC50 (second compound 0.949 µM)	IC50 (second compound 3 µM)	IC50 (second compound 9.49 µM)	IC50 (second compound 30 µM)	viability, T/C [1]	viability, T/C [2]	viability, T/C [3]	viability, T/C [4]	viability, T/C [5]	viability, T/C [6]	viability, T/C [7]	viability, T/C [8]	viability, T/C [9]	viability, T/C [10]	viability, T/C [11]	viability, T/C [12]	viability, T/C [13]	viability, T/C [14]	viability, T/C [15]	also measured
COc1c(OCCCN2CCOCC2)ccc2c3n(c(=NC(=O)c4cnc(N)nc4)nc12)CCN3 + CC(C)NCC(C(=O)N1CCN(c2ncnc3c2C(C)CC3O)CC1)c1ccc(Cl)cc1	0.133 µM	0.161 µM	0.0756 µM	0.0458 µM	0.0151 µM	94.5%	55.6%	35.1%	31.2%	84.6%	61.1%	34.3%	33.2%	66.5%	45.6%	31.5%	31.2%	56.6%	37.2%	28.4%	viability, T/C (second compound 0.3 µM, first compound 0.00316 µM): 91.7%; viability, T/C (second compound 0.3 µM, first compound 0.01 µM): 76.2%; viability, T/C (second compound 0.949 µM, first compound 0.00316 µM): 96.3%; viability, T/C (second compound 0.949 µM, first compound 0.01 µM): 100%; viability, T/C (second compound 3 µM, first compound 0.00316 µM): 95.9%; viability, T/C (second compound 3 µM, first compound 0.01 µM): 86.8%; viability, T/C (second compound 9.49 µM, first compound 0.00316 µM): 81%; viability, T/C (second compound 9.49 µM, first compound 0.01 µM): 72.8%; viability, T/C [16]: 28%; viability, T/C (second compound 30 µM, first compound 0.00316 µM): 60.4%; viability, T/C (second compound 30 µM, first compound 0.01 µM): 56.5%; viability, T/C [17]: 38.8%; viability, T/C [18]: 29.8%; viability, T/C [19]: 25.3%; viability, T/C [20]: 26.3%
Cc1nc(NC(=O)N2CCCC2C(N)=O)sc1-c1ccnc(C(C)(C)C(F)(F)F)c1 (stereo not given) + CC(C)NCC(C(=O)N1CCN(c2ncnc3c2C(C)CC3O)CC1)c1ccc(Cl)cc1	> 10 µM	9.66 µM	7.35 µM	2.67 µM	1.22 µM	88.2%	79.8%	81.9%	88.3%	93.9%	92%	102%	93.5%	95.1%	92.2%	86%	73.7%	80.3%	85.2%	74.1%	viability, T/C (second compound 0.3 µM, first compound 3.16 µM): 75.9%; viability, T/C (second compound 0.3 µM, first compound 10 µM): 51.1%; viability, T/C (second compound 0.949 µM, first compound 3.16 µM): 73.4%; viability, T/C (second compound 0.949 µM, first compound 10 µM): 49.3%; viability, T/C (second compound 3 µM, first compound 3.16 µM): 64.3%; viability, T/C (second compound 3 µM, first compound 10 µM): 44.8%; viability, T/C [16]: 66%; viability, T/C (second compound 9.49 µM, first compound 3.16 µM): 46.8%; viability, T/C (second compound 9.49 µM, first compound 10 µM): 37.2%; viability, T/C [17]: 71.5%; viability, T/C [18]: 71.2%; viability, T/C [19]: 59.5%; viability, T/C [20]: 53.5%; viability, T/C (second compound 30 µM, first compound 3.16 µM): 39.7%; viability, T/C (second compound 30 µM, first compound 10 µM): 28.3%

From PubChem BioAssay AID2060355 (Molecular Pharmacology Branch, DTP, NCI, 2025)
